Read-outs that look alike come from different tables or passages of the source.
Experiments:
[1] = system: T1, human pancreatic chymotrypsin; assay: Specificity assay, chymotrypsin; assay type: biochemical; conditions: 2 h enzyme-inhibitor pre-incubation; read-out: Chymotrypsin activity in the specificity assays (IC50)
T1 construct: "human pancreatic chymotrypsin"
Experimental: (§1) The specificities of compounds of the present disclosure were determined against a variety of serine proteases: human neutrophil elastase (HNE), porcine pancreatic elastase (PPE) and human pancreatic chymotrypsin and one cysteine protease: human liver cathepsin B. In all cases a 96-well plate format protocol using calorimetric p-nitroaniline (pNA) substrate specific for each enzyme was used as described previously (PCT Patent Application No. WO 00/09543) with some modifications to the serine protease assays. All enzymes were purchased from Sigma while the substrates were from Bachem.
(§2) Each assay included a 2 h enzyme-inhibitor pre-incubation at room temperature followed by addition of substrate and hydrolysis to 30% conversion as measured on a Spectramax Pro microplate reader. Compound concentrations varied from 100 to 0.4 μM depending on their potency. […]
(§3) The percentage of inhibition was calculated using the formula: [1−((UVinh−UVblank)/(UVctl−UVblank))]×100 […]

human liver cathepsin B = molecular target: T2, human liver cathepsin B (Homo sapiens, UniProt P07858); assay: Specificity assay, cathepsin B; assay type: biochemical; conditions: 2 h enzyme-inhibitor pre-incubation; read-out: Cathepsin B activity in the specificity assays (IC50)
T2 construct: purchased Sigma; host or cells: human liver
Experimental: as §1, §2, §3

[2] = molecular target: T3, HCV NS3/4A protease complex, BMS strain (UniProt P27958, species not given/STRAIN_BMS); assay: FRET peptide assay to monitor HCV NS3/4A proteolytic activity (BMS strain); assay type: biochemical, HCV genotype 1a
T3 construct: said of H77 and J4L6S, not expressly of BMS; fused on or other part: A three-lysine solubilising tail at the NS4A C-terminus and purification on Ni-NTA are described for the H77 and J4L6S constructs
T3 sequence (P27958 1027-1657, change not shown, one chain of several): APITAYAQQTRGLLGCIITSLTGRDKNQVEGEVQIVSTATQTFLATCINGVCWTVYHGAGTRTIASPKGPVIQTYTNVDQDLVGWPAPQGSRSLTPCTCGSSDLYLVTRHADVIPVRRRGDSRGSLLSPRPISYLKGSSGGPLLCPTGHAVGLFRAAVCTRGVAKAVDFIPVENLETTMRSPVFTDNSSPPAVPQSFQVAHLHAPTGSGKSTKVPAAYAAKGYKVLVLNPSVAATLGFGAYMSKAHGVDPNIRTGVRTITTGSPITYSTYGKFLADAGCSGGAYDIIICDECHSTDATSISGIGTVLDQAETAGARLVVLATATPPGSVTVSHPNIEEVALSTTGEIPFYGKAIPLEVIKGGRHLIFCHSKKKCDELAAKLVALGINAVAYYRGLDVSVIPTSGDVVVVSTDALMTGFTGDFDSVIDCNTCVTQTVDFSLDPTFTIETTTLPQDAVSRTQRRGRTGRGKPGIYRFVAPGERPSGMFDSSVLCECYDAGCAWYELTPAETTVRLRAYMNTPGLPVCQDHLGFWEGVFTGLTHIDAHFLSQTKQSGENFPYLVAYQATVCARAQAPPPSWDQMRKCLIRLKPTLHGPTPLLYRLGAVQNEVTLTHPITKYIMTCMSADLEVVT
From the text: HCV NS3 protease complexes, derived from the BMS strain, H77 strain or J4L6S strain, were generated, as described below. These purified recombinant proteins were generated for use in a homogeneous assay (see below) to provide an indication of how effective compounds of the present disclosure would be in inhibiting HCV NS3 proteolytic activity.
Serum from an HCV-infected patient was obtained from Dr. T. Wright, San Francisco Hospital. An engineered full-length cDNA (compliment deoxyribonucleic acid) template of the HCV genome (BMS strain) was constructed from DNA fragments obtained by reverse transcription-PCR (RT-PCR) of serum RNA (ribonucleic acid) and using primers selected on the basis of homology between other genotype 1a strains. From the determination of the entire genome sequence, a genotype 1a was assigned to the HCV isolate according to the classification of Simmonds et al. (See P Simmonds, K A Rose, S Graham, S W Chan, F McOmish, B C Dow, E A Follett, P L Yap and H Marsden, J. Clin. Microbiol., 31(6), 1493-1503 (1993)). […] The infectious clones, H77 (1a genotype) and J4L6S (1b genotype) were obtained from R. Purcell (NIH) and the sequences are published in Genbank (AAB67036, see Yanagi, M., Purcell, R. H., Emerson, S. U. and Bukh, J. Proc. Natl. Acad. Sci. U.S.A. 94(16), 8738-8743 (1997); AF054247, see Yanagi, M., St Claire, M., Shapiro, M., Emerson, S. U., Purcell, R. H. and Bukh, J, Virology 244 (1), 161-172. (1998)).
NS3/4A protease complex-containing fractions were pooled and loaded on a desalting column Superdex-S200 pre-equilibrated with buffer D (25 mM HEPES, pH 7.5, 20% glycerol, 300 mM NaCl, 0.2% Triton X-100, 10 mM βME). Sample was loaded at a flow rate of 1 mL/min. NS3/4A protease complex-containing fractions were pooled and concentrated to approximately 0.5 mg/ml. The purity of the NS3/4A protease complexes, derived from the BMS, H77 and J4L6S strains, were judged to be greater than 90% by SDS-PAGE and mass spectrometry analyses. The enzyme was stored at −80° C., thawed on ice and diluted prior to use in assay buffer.
The purpose of this in vitro assay was to measure the inhibition of HCV NS3 protease complexes, derived from the BMS strain, H77 strain or J4L6S strain, as described above, by compounds of the present disclosure. This assay provides an indication of how effective compounds of the present disclosure would be in inhibiting HCV NS3 proteolytic activity.
In order to monitor HCV NS3/4A protease activity, an NS3/4A peptide substrate was used. The substrate was RET S1 (Resonance Energy Transfer Depsipeptide Substrate; AnaSpec, Inc. cat #22991) (FRET peptide), described by Taliani et al. in Anal. Biochem. 240(2):60-67 (1996). The sequence of this peptide is loosely based on the NS4A/NS4B natural cleavage site for the HCV NS3 protease except there is an ester linkage rather than an amide bond at the cleavage site. The peptide also contains a fluorescence donor, EDANS, near one end of the peptide and an acceptor, DABCYL, near the other end. The fluorescence of the peptide is quenched by […] resonance energy transfer (RET) between the donor and the acceptor, but as the NS3 protease cleaves the peptide the products are released from RET quenching and the fluorescence of the donor becomes apparent.
The peptide substrate was incubated with one of the three recombinant NS3/4A protease complexes, in the absence or presence of a compound of the present disclosure. The inhibitory effects of a compound were determined by monitoring the formation of fluorescent reaction product in real time using a Cytofluor Series 4000.
Assay buffer: 50 mM HEPES, pH 7.5; 0.15M NaCl; 0.1% Triton; 15% Glycerol; 10 mM βME. Substrate: 2 μM final concentration (from a 2 mM stock solution in DMSO stored at −20° C.). HCV NS3/4A protease type 1a (1b), 2-3 nM final concentration (from a 5 μM stock solution in 25 mM HEPES, pH 7.5, 20% glycerol, 300 mM NaCl, 0.2% Triton-X100, 10 mM βME). […]

## C=C[C@@H]1C[C@]1(NC(=O)[C@@H]1C[C@@](O)(c2ccc(-c3ccccc3)cc2)CN1C(=O)[C@@H](NC(=O)OC(C)(C)C)C(C)(C)C)C(=O)NS(=O)(=O)C1CC1 [Compound 3]
[1]
  IC50: > 100 µM
Human liver cathepsin B
  IC50: 2 µM
[2]; BMS strain, read-out: IC50 against the NS3/4A BMS strain in the enzyme assay
  IC50: 0.004 µM
[2]; NS3/4A BMS strain, read-out: Activity Range (IC50)
  IC50: 0.001 to 0.1 µM

— patent US7592336B2, “Hepatitis C virus inhibitors” (Bristol-Myers Squibb Company, priority 2005, dated 2009)
